Values quoted from earlier work, collected in US6436949B1, “Heterocyclically substituted benzamides and their use” (Abbott Laboratories, priority 1996, dated 2002).

Key:
calpain [1] = settings: activated platelets; J. Biol. Chem., 1993, Vol 268, 12603-12608
calpain [2] = settings: J.Med.Chem. 1990,33, 11-13

For `CCCC[C@@H](C=O)NC(=O)[C@H](CC(C)C)NC(=O)OCc1ccccc1` [calpeptin], the “cleavage of pp60src” value (calpain [1]) is given as “can be prevented”.
In the case of Ph—CONH—CH(CH2Ph)—CO—COCOOCH3, the inhibition of calpain (calpain [2]) is listed as “weak inhibitor of calpain”.
